The record followed here is patent US7662832B2, “Pyrrolo[2,3-c]pyridine derivatives and processes for the preparation thereof” (priority 2004, dated 2010).

Where a name gives a salt, the structure may show the parent alone.

Proton Pump (H^+/K^+-ATPase), sequence (P19156 2-1034 limits assumed): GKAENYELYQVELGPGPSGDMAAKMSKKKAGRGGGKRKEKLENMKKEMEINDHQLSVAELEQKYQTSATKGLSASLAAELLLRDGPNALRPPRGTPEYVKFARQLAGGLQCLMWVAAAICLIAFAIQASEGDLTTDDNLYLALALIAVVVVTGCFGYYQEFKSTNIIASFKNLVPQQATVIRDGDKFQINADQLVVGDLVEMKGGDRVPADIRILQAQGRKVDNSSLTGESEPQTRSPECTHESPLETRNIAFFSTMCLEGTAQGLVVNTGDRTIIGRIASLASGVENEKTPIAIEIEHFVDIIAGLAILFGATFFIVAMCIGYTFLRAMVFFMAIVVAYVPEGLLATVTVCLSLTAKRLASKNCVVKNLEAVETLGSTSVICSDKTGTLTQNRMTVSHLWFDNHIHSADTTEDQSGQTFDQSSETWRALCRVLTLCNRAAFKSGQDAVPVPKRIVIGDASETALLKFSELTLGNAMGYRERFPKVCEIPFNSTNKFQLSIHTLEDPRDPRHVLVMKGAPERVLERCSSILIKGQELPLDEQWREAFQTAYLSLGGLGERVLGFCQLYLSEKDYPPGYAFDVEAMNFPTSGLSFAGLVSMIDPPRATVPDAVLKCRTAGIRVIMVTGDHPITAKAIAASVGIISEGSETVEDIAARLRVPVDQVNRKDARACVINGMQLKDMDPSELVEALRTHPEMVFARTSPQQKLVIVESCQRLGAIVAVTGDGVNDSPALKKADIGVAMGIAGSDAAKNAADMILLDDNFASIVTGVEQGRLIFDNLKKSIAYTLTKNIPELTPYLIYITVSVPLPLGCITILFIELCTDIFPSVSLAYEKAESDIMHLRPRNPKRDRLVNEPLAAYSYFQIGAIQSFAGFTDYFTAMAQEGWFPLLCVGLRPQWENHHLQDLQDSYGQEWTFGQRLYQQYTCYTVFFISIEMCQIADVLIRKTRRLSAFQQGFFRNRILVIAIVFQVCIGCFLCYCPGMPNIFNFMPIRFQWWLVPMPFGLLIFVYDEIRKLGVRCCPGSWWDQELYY
Proton Pump (H^+/K^+-ATPase), sequence (P18434 whole entry partner): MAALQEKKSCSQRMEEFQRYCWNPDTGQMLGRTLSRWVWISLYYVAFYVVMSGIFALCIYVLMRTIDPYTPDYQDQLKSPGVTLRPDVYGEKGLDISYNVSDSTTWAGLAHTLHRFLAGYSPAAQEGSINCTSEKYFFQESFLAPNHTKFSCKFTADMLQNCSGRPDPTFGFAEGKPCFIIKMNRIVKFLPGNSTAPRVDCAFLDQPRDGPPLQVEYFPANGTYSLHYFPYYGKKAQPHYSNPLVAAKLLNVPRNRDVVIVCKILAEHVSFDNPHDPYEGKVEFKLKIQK

The test concerns the target Proton Pump (H^+/K^+-ATPase) (Sus scrofa, UniProt P19156). Kind of test: Inhibitory effects on proton pump (H^+/K^+-ATPase) activity. Type of test: biochemical. As to conditions: hog gastric vesicles; K^+ stimulated H^+/K^+-ATPase activity; 30 minutes at 37° C.
The IC50 is the concentration needed to halve the response being measured. As to `Cc1c(C)n(Cc2cccc(F)c2)c2c(N3CCc4ccccc4C3)nc(CNC(C)(C)C)cc12` [Example 869, N-[7-(3,4-dihydro-1H-isoquinolin-2-yl)-1-(3-fluorobenzyl)-2,3-dimethyl-1H-pyrrolo[2,3-c]pyridin-5-ylmethyl]-tert-butylamine hydrochloride], the half-inhibitory concentration (IC50) is 40 nM.
The molecule `Cc1c(C)n(Cc2ccccc2)c2c(N3CCc4ccccc4C3C)nccc12` (stereo not shown) [Example 556, 2-(1-benzyl-2,3-dimethyl-1H-pyrrolo[2,3-c]pyridin-7-yl)-1-methyl-1,2,3,4-tetrahydroisoquinoline hydrochloride] showed an IC50 of 130 nM.
As for `C=CCn1c(C)c(C)c2cc(C(=O)N3CCOCC3)nc(N3CCc4ccccc4C3)c21` [Example 777, [1-allyl-7-(3,4-dihydro-1H-isoquinolin-2-yl)-2,3-dimethyl-1H-pyrrolo[2,3-c]pyridin-5-yl]-(morpholin-4-yl)-methanone hydrochloride], the IC50 was determined as 1.6 nM.
`Cc1c(C)n(Cc2ccccc2)c2c(N3CCc4ccccc4C3)nc(C(=O)N3CCOCC3)cc12` [Example 769, [1-benzyl-7-(3,4-dihydro-1H-isoquinolin-2-yl)-2,3-dimethyl-1H-pyrrolo[2,3-c]pyridin-5-yl]-(morpholin-4-yl)-methanone hydrochloride]: the IC50 is 103 nM.
As for `Cc1c(C)n(CCC(C)Cl)c2c(N3CCc4ccccc4C3)nccc12` (stereo not shown) [Example 513, 1-(3-chlorobutyl)-7-(1,2,3,4-tetrahydroisoquinolin-2-yl)-2,3-dimethyl-1H-pyrrolo[2,3-c]pyridine hydrochloride], the figure is 74 nM; as for `COc1cccc(Cn2c(C)c(C)c3ccnc(COc4ccc(Cl)cc4)c32)c1` [Example 45, 7-(4-chlorophenoxymethyl)-1-(3-methoxybenzyl)-2,3-dimethyl-1H-pyrrolo[2,3-c]pyridine hydrochloride], 71 nM; as for `C=CCn1c(C)c(C)c2ccnc(N(C)Cc3ccc(F)cc3)c21` [Example 140, 1-allyl-7-[N-(4-fluorobenzyl)-N-methyl]amino-2,3-dimethyl-1H-pyrrolo[2,3-c]pyridine hydrochloride], 240 nM.
Take `Cc1nc(Cn2c(C)c(C)c3ccnc(N4CCc5ccccc5C4C)c32)cs1` (stereo not shown) [Example 559, 2-[2,3-dimethyl-1-(2-methylthiazol-4-ylmethyl)-1H-pyrrolo[2,3-c]pyridin-7-yl]-1-methyl-1,2,3,4-tetrahydroisoquinoline hydrochloride]: the midpoint of inhibition, the IC50, lay at 159 nM.
As for `COc1cccc(Cn2c(C)c(C)c3ccnc(N(C)Cc4ccc(F)cc4)c32)c1` [Example 151, 7-[N-(4-fluorobenzyl)-N-methyl]amino-1-(3-methoxybenzyl)-2,3-dimethyl-1H-pyrrolo[2,3-c]pyridine hydrochloride], half-maximal inhibition (IC50) was put at 340 nM.
`Cc1[nH]c2c(N3CCc4ccccc4C3)nc(C(=O)N3CCN(C)CC3)cc2c1C` [Example 827, [7-(3,4-dihydro-1H-isoquinolin-2-yl)-2,3-dimethyl-1H-pyrrolo[2,3-c]pyridin-5-yl]-(4-methylpiperazin-1-yl)-methanone hydrochloride] registered an IC50 of 77 nM.
`Cc1nc(Cn2c(C)c(C)c3ccnc(N4CCc5ccc(F)cc5C4C)c32)cs1` (stereo not shown) [Example 551, 2-[2,3-dimethyl-1-(2-methylthiazol-4-ylmethyl)-1H-pyrrolo[2,3-c]pyridin-7-yl]-7-fluoro-1-methyl-1,2,3,4-tetrahydroisoquinoline hydrochloride] came in with an IC50 of 320 nM.
Consider `Cc1c(C)n(Cc2ccc(C(F)(F)F)cc2)c2c(N3CCc4ccccc4C3)nccc12` [Example 500, 7-(1,2,3,4-tetrahydroisoquinolin-2-yl)-1-(4-trifluoromethylbenzyl)-2,3-dimethyl-1H-pyrrolo[2,3-c]pyridine hydrochloride], for which the IC50 is 270 nM.
In turn, `C=CCn1c(C)c(C)c2ccnc(N3CCc4ccccc4C3CC)c21` (stereo not shown) [Example 577, 2-(1-allyl-2,3-dimethyl-1H-pyrrolo[2,3-c]pyridin-7-yl)-1-ethyl-1,2,3,4-tetrahydroisoquinoline hydrochloride] came in with an IC50 of 140 nM.
As for `CC(C)=CCn1c(C)c(C)c2ccnc(CN(C)c3ccc(F)cc3)c21` [Example 119, N-[2,3-dimethyl-1-(3-methylbut-2-enyl)-1H-pyrrolo[2,3-c]pyridin-7-ylmethyl]-N-(4-fluorophenyl)-methylamine hydrochloride], the figure is 405 nM; as for `CSc1ccc(-c2nccc3c(C)c(C)[nH]c23)cc1` [Example 262, 2,3-dimethyl-7-(4-methylsulfanylphenyl)-1H-pyrrolo[2,3-c]pyridine], 220 nM.
As for `Cc1c(C)n(Cc2cccc(Cl)c2)c2c(N3CCc4ccccc4C3)nc(-c3nnn[nH]3)cc12` [Example 852, 2-[1-(3-chlorobenzyl)-2,3-dimethyl-5-(1H-tetrazol-5-yl)-1H-pyrrolo[2,3-c]pyridin-7-yl]-1,2,3,4-tetrahydroisoquinoline], inhibition was half-maximal at 427 nM (IC50).
In turn, `CCn1c(C)c(C)c2ccnc(N3CCc4cc(F)ccc4C3C)c21` (stereo not shown) [Example 562, 2-(1-ethyl-2,3-dimethyl-1H-pyrrolo[2,3-c]pyridin-7-yl)-6-fluoro-1-methyl-1,2,3,4-tetrahydroisoquinoline hydrochloride] displayed an IC50 of 58 nM.
The molecule `Cc1c(C)n(CC2CC2)c2c(NCc3ccc(F)cc3)nccc12` [Example 226, 1-cyclopropylmethyl-7-(4-fluorobenzylamino)-2,3-dimethyl-1H-pyrrolo[2,3-c]pyridine hydrochloride] came in with an IC50 of 70 nM.
`Cc1c(CO)c2ccnc(-c3ccc4ccccc4c3)c2n1Cc1cccc(F)c1` [Example 411, 1-(3-fluorobenzyl)-3-hydroxymethyl-2-methyl-7-(naphthalen-2-yl)-1H-pyrrolo[2,3-c]pyridine hydrochloride] gave an IC50 of 284 nM. This IC50 lies about 4.1-fold higher than the previous one.
Consider `Cc1c(C)n(CC2CC2)c2c(COc3ccc(F)cc3F)nccc12` [Example 35, 1-cyclopropylmethyl-7-(2,4-difluorophenoxymethyl)-2,3-dimethyl-1H-pyrrolo[2,3-c]pyridine hydrochloride], for which half-maximal inhibition (IC50) was put at 846 nM.
With `Cc1c(C)n(Cc2ccncc2)c2c(N3CCc4ccccc4C3)nccc12` [Example 518, 1-(pyridin-4-ylmethyl)-7-(1,2,3,4-tetrahydroisoquinolin-2-yl)-2,3-dimethyl-1H-pyrrolo[2,3-c]pyridine hydrochloride], the IC50 amounted to 179 nM.
In turn, `Cc1c(C)n(Cc2ccccc2)c2c(COc3ccc(F)cc3)nccc12` [Example 3, 1-benzyl-7-(4-fluorophenoxymethyl)-2,3-dimethyl-1H-pyrrolo[2,3-c]pyridine hydrochloride] returned an IC50 of 58 nM.
Molecule `CSc1ccc(-c2nccc3c(C)c(C)n(CC4CC4)c23)cc1` [Example 270, 1-cyclopropylmethyl-2,3-dimethyl-7-(4-methylsulfanylphenyl)-1H-pyrrolo[2,3-c]pyridine hydrochloride] showed a 50% inhibitory concentration (IC50) of 450 nM.
For `Cc1c(C)n(Cc2cccc(Cl)c2)c2c(N3CCc4ccccc4C3)nc(C#N)cc12` [Example 689, 1-(3-chlorobenzyl)-7-(3,4-dihydro-1H-isoquinolin-2-yl)-2,3-dimethyl-1H-pyrrolo[2,3-c]pyridin-5-carbonitrile] the value was 331 nM.
Take `Cc1c(C)n(Cc2ccccc2)c2c(-c3ccc(Cl)cc3)nccc12` [Example 301, 1-benzyl-7-(4-chlorophenyl)-2,3-dimethyl-1H-pyrrolo[2,3-c]pyridine hydrochloride]: it took 384 nM to reach half-maximal inhibition (IC50).
For `CCC1c2ccccc2CCN1c1nccc2c(C)c(C)n(Cc3csc(C)n3)c12` (stereo not shown) [Example 586, 1-ethyl-2-[2,3-dimethyl-1-(2-methylthiazol-4-ylmethyl)-1H-pyrrolo[2,3-c]pyridin-7-yl]-1,2,3,4-tetrahydroisoquinoline hydrochloride] the value was 330 nM.
For `Cc1c(C)n(CC2CC2)c2c(N3CCc4ccccc4C3)nc(C(N)=O)cc12` [Example 754, 1-cyclopropylmethyl-7-(3,4-dihydro-1H-isoquinolin-2-yl)-2,3-dimethyl-1H-pyrrolo[2,3-c]pyridin-5-carboxamide] the value was 4050 nM.
`Cc1ccc(-c2nccc3c(C)c(C)n(Cc4ccc(Cl)cc4)c23)cc1` [Example 283, 1-(4-chlorobenzyl)-2,3-dimethyl-7-(p-tolyl)-1H-pyrrolo[2,3-c]pyridine hydrochloride]: half-maximal inhibition (IC50) required 1740 nM. This IC50 lies about 2.3-fold lower than the previous one.
Regarding `C=CCn1c(C)c(C)c2ccnc(N3CCc4ccccc4C3)c21` [Example 486, 1-allyl-7-(1,2,3,4-tetrahydroisoquinolin-2-yl)-2,3-dimethyl-1H-pyrrolo[2,3-c]pyridine tartrate], the IC50 was found to be 8 nM.
Turning to `COc1cccc(Cn2c(C)c(C)c3cc(C(=O)N4CCN(C)CC4)nc(N4CCc5ccccc5C4)c32)c1` [Example 783, [7-(3,4-dihydro-1H-isoquinolin-2-yl)-1-(3-methoxybenzyl)-2,3-dimethyl-1H-pyrrolo[2,3-c]pyridin-5-yl]-(4-methylpiperazin-1-yl)-methanone hydrochloride], the IC50 was found to be 3 nM.
In turn, `Cc1c(C)n(CC2CC2)c2c(N3CCc4ccccc4C3)nc(C(=O)O)cc12` [Example 740, 1-cyclopropylmethyl-7-(3,4-dihydro-1H-isoquinolin-2-yl)-2,3-dimethyl-1H-pyrrolo[2,3-c]pyridin-5-carboxylic acid] showed an IC50 of 267 nM.
With `Cc1[nH]c2c(N3CCc4ccccc4C3C)nccc2c1C` (stereo not shown) [Example 560, 2-(2,3-dimethyl-1H-pyrrolo[2,3-c]pyridin-7-yl)-1-methyl-1,2,3,4-tetrahydroisoquinoline sodium], half-maximal inhibition (IC50) required 17 nM.
Consider `Cc1c(C)n(CC(C)C)c2c(NCc3ccccc3)nccc12` [Example 184, 7-benzylamino-1-isobutyl-2,3-dimethyl-1H-pyrrolo[2,3-c]pyridine hydrochloride], for which the midpoint of inhibition, the IC50, lay at 240 nM.
Molecule `COc1cccc(Cn2c(C)c(C)c3ccnc(COc4ccc(C)cc4)c32)c1` [Example 16, 1-(3-methoxybenzyl)-2,3-dimethyl-7-(p-tolyloxymethyl)-1H-pyrrolo[2,3-c]pyridine hydrochloride] registered a 50% inhibitory concentration (IC50) of 180 nM.
